Patent US20090246293A1 (priority 2008, published 2009)
Read-outs that look alike come from different tables or passages of the source.

Experiments:
[1] = test system: Plasmopara viticola (PLASVI); type: in vivo; conditions: for Reduction in percent disease: aldehyde derivative 100 ppm with mancozeb, PLASVI; for Reduction in percent disease PLASVI: substance 500 ppm with mancozeb 6.25 ppm (Dithane DGNT), foliar spray, inoculated 2 to 3 hours after treatment; for % disease at 500 ppm of substance alone PLASVI: substance alone 500 ppm, untreated check 95
[2] = test system: Pseudoperonospora cubensis (PSPECU); conditions: in vivo
[3] = test system: Phytophthora infestans (PHYTIN); type: in vivo; conditions: for Reduction in percent disease PHYTIN: substance 500 ppm with mancozeb 25 ppm (Dithane DGNT), foliar spray, inoculated 2 to 3 hours after treatment; for % disease at 500 ppm of substance alone PHYTIN: substance alone 500 ppm, untreated check 95
[4] = test system: Pseudoperonospora cubensis (PSPECU); test: Droplet application on cucumber leaf, growth chamber (Examples 5a-d); type: in vivo; conditions: for % disease at 500 ppm of substance alone: substance alone 500 ppm, untreated check 91%; for % disease at 1000 ppm of substance alone: substance alone 1000 ppm, untreated check 100%; for % disease at 100 ppm of substance alone: substance alone 100 ppm, untreated check 92%
Procedure: Examples 5a through 5d were conducted in growth chambers on cucumber plants. Cucumbers (Cucumis sativus cv Bush Pickle Hybrid #901261) were grown from seed in 5 cm by 5 cm pots containing MetroMix™ growth medium (Scotts, Marysville, Ohio) and maintained in a glasshouse with supplementary light sources to provide a 14 hour photoperiod at 24-29° C. until the plants were in the 2-3 true leaf stage of growth and the oldest leaf was fully expanded.
For examples 5a through 5d, described below, samples of mancozeb formulated as Dithane DG NT were dissolved in water to form a ½×dilution series. Mancozeb rates were 400, 200, 100 and 50 ppm. Samples of various aldehydes, amino acids, carboxylic acids, amines and alcohols were dissolved in acetone and then mixed with aqueous solutions of mancozeb. Attractant rates in the dilute solutions were 100, 200, 500 or 1000 ppm, depending on the experiment.
Mixtures of attractant or attractant derivative plus mancozeb or mancozeb alone were applied to cucumber as a row of 5 or 7.5 ul droplets using a multi-channel pipetting device. Five droplets spaced 1 cm apart were placed along the mid-rib of the expanded cucumber leaf with the first droplet being positioned at least 1-cm from the leaf apex. Each treatment was replicated three or four times, depending on the experiment. Two to three hours after applying the treatments when droplets had dried, plants were inoculated with a suspension of sporangia of a Pseudoperonospora cubensis (PSPECU) and incubated as described in the methods for sprayed tests. When symptoms were well developed in untreated check plants, the experiment was assessed visually using a template 2 cm wide and 7 cm long with the long axis centered on the mid-rib of the treated leaf.
Reduction in percent disease was calculated by subtracting percent disease on plants receiving a mixture of mancozeb plus the specified test substance from percent disease on plants receiving mancozeb alone. The results for examples 5a-5d are shown below in Tables 7-10; the reduction in percent disease was indicated as follows: […]

[5] = substance 200 ppm with mancozeb 50 ppm vs mancozeb alone, cucumber
[6] = substance 500 ppm with mancozeb 200 ppm vs mancozeb alone, Table 8
[7] = substance 1000 ppm with mancozeb 50 ppm vs mancozeb alone, cucumber
[8] = substance 100 ppm with mancozeb 200 ppm vs mancozeb alone, Table 9

| Structure (SMILES) | Reduction in percent disease ([1]; Table 15) | Reduction in percent disease [2] | Reduction in percent disease ([1]; Table 13) | Reduction in percent disease PHYTIN [3] | % disease at 500 ppm of substance alone PHYTIN [3] [%] | Reduction in % Disease [4, 5] | Reduction in % Disease [4, 6] | Reduction in % Disease [4, 7] | % disease at 500 ppm of substance alone [4] [%] | % disease at 1000 ppm of substance alone [4] [%] | Reduction in percent disease PLASVI [1] | % disease at 500 ppm of substance alone PLASVI [1] [%] | Reduction in % Disease [4, 8] | % disease at 100 ppm of substance alone ([4]; Table 9) [%] |
| --- | --- | --- | --- | --- | --- | --- | --- | --- | --- | --- | --- | --- | --- | --- |
| CCCC(=O)N/N=C/CC(C)C [Compound M] | xx (21-35% reduction in percent disease) | xxx (key: x: 0-20% reduction in percent disease; xx: 21-35% reduction in percent disease; xxx: 36-50% reduction in percent disease; xxxx: >50% reduction in percent disease) | – | – | – | – | – | – | – | – | – | – | – | – |
| CC(=O)N/N=C/CC(C)C [Compound H] | – | xx (key: x: 0-20% reduction in percent disease; xx: 21-35% reduction in percent disease; xxx: 36-50% reduction in percent disease; xxxx: >50% reduction in percent disease) | xx (21-35% reduction in percent disease) | – | – | – | – | – | – | – | – | – | – | – |
| CC(C)C/C=N/NC(=O)c1ccccc1 [Compound I] | – | xx (key: x: 0-20% reduction in percent disease; xx: 21-35% reduction in percent disease; xxx: 36-50% reduction in percent disease; xxxx: >50% reduction in percent disease) | – | – | – | – | – | – | – | – | – | – | – | – |
| N[C@@H](CCC(=O)O)C(=O)O [Glutamic acid] | – | – | – | xx (21-35% reduction in percent disease) | 95 | xx (21-35% reduction in percent disease) | x (0-20% reduction in percent disease) | x (0-20% reduction in percent disease) | 90 | 100 | xxx (36-50% reduction in percent disease) | 93 | – | – |
| CCC(C)C=O (stereo not shown) [2-methylbutyraldehyde] | – | – | – | x (0-20% reduction in percent disease) | 95 | – | x (0-20% reduction in percent disease) | – | 74 | – | x (0-20% reduction in percent disease) | 95 | x (0-20% reduction in percent disease) | 98 |
| O=CCC1CC1 [Cyclopropylacetaldehyde] | – | – | – | x (0-20% reduction in percent disease) | 95 | – | x (0-20% reduction in percent disease) | – | 90 | – | xx (21-35% reduction in percent disease) | 95 | x (0-20% reduction in percent disease) | 85 |
| CCCCC=O [Valeraldehyde] | – | – | – | x (0-20% reduction in percent disease) | 95 | – | x (0-20% reduction in percent disease) | – | 94 | – | x (0-20% reduction in percent disease) | 95 | x (0-20% reduction in percent disease) | 93 |
| CC(C)(C)CC=O [3,3-dimethylbutyraldehyde] | – | – | – | x (0-20% reduction in percent disease) | 95 | – | x (0-20% reduction in percent disease) | – | 75 | – | x (0-20% reduction in percent disease) | 87 | x (0-20% reduction in percent disease) | 96 |
| CC(C)CO [Isobutanol] | – | – | – | xxx (36-50% reduction in percent disease) | 95 | x (0-20% reduction in percent disease) | x (0-20% reduction in percent disease) | xxxx (>50% reduction in percent disease) | 95 | 100 | xxxx (>50% reduction in percent disease) | 78 | – | – |
